Assay results published in patent US10670605B2, “Cysteine reactive probes and uses thereof” (The Scripps Research Institute, priority 2015, dated 2020).
Blank lines part the entries; values can stand above or below the molecule they belong to.

How the values were obtained:
Assay in all cases: Competitive isoTOP-ABPP in situ (fragment-treated cells)
Format in all cases: cell-based
[1] = biological target: cysteines in MDA-MB-231 and Ramos cells (Homo sapiens, UniProt O15446); details: 200 μM, insitu, 231
[2] = biological target: T1, cysteines in MDA-MB-231 and Ramos cells (Homo sapiens, UniProt Q6ICB0)
T1 sequence (Q6ICB0 1-168): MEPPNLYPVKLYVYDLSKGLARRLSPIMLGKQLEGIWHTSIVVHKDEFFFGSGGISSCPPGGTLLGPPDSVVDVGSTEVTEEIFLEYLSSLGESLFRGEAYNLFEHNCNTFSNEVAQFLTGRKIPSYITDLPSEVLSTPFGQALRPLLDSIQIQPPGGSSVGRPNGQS

[3] = biological target: cysteines in MDA-MB-231 and Ramos cells (Homo sapiens, UniProt P51610)
[4] = biological target: T2, cysteines in MDA-MB-231 and Ramos cells (Homo sapiens, UniProt Q9NPH0)
T2 sequence (Q9NPH0 33-428): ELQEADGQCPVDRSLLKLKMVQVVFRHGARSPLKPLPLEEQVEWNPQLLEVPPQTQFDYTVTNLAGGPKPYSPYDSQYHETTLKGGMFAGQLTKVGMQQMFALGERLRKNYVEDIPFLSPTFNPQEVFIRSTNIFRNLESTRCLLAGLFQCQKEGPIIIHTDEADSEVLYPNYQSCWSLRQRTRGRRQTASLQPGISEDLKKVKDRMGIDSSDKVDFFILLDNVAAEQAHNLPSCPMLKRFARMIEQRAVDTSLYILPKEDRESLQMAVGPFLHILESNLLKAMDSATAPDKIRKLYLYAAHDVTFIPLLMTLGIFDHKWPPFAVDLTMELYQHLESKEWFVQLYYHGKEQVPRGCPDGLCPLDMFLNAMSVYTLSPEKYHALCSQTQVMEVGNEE

[5] = biological target: T3, cysteines in MDA-MB-231 and Ramos cells (Homo sapiens, UniProt Q9Y679)
T3 sequence (Q9Y679 1-410): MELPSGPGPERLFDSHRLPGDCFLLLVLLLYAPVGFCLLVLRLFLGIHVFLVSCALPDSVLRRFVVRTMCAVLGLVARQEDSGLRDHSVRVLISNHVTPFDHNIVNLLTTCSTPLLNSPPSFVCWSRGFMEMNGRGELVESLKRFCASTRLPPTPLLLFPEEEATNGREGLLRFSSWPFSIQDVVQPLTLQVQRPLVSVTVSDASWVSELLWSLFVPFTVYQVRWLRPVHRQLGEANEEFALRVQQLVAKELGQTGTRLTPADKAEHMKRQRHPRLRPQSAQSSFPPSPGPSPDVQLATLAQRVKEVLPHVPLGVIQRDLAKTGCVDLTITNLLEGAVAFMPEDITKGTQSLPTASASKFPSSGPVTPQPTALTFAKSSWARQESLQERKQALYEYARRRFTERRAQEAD

[6] = biological target: cysteines in MDA-MB-231 and Ramos cells (Homo sapiens, UniProt Q96RP9); details: for isoTOP-ABPP ratio Q96RP9_C153 / isoTOP-ABPP ratio, cysteine Q96RP9_C153: 200 μM, insitu
[7] = biological target: T4, cysteines in MDA-MB-231 and Ramos cells (Homo sapiens, UniProt Q8WVV9)
T4 sequence (Q8WVV9 1-542): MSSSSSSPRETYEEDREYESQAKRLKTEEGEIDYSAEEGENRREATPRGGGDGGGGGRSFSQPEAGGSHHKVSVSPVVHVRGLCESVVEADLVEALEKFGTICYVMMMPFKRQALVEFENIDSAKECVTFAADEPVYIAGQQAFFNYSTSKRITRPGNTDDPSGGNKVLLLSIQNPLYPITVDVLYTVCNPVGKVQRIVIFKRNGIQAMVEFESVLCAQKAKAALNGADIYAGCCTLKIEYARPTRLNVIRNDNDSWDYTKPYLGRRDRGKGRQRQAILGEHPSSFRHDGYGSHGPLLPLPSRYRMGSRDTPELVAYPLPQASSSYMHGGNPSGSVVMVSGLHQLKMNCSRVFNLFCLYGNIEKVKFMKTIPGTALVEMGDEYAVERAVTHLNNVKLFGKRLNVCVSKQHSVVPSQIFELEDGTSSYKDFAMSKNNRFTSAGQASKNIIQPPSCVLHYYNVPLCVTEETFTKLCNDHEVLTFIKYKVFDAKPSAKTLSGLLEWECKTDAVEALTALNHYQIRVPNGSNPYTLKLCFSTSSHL

[8] = biological target: cysteines in MDA-MB-231 and Ramos cells (Homo sapiens, UniProt Q9BRF8)
[9] = biological target: cysteines in MDA-MB-231 and Ramos cells (Homo sapiens, UniProt O14933); details: for isoTOP-ABPP ratio, cysteine O14933_C98 / isoTOP-ABPP ratio O14933_C98: 200 μM, insitu
cysteines in MDA-MB-231 and Ramos cells (Homo sapiens, UniProt O14933), sequence (O14933 whole entry): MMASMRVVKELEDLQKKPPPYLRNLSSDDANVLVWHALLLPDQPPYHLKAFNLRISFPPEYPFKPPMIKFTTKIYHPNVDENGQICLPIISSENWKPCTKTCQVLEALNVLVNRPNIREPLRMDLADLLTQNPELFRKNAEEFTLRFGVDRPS

cysteines in MDA-MB-231 and Ramos cells (Homo sapiens, UniProt Q96RP9), sequence (Q96RP9 37-751): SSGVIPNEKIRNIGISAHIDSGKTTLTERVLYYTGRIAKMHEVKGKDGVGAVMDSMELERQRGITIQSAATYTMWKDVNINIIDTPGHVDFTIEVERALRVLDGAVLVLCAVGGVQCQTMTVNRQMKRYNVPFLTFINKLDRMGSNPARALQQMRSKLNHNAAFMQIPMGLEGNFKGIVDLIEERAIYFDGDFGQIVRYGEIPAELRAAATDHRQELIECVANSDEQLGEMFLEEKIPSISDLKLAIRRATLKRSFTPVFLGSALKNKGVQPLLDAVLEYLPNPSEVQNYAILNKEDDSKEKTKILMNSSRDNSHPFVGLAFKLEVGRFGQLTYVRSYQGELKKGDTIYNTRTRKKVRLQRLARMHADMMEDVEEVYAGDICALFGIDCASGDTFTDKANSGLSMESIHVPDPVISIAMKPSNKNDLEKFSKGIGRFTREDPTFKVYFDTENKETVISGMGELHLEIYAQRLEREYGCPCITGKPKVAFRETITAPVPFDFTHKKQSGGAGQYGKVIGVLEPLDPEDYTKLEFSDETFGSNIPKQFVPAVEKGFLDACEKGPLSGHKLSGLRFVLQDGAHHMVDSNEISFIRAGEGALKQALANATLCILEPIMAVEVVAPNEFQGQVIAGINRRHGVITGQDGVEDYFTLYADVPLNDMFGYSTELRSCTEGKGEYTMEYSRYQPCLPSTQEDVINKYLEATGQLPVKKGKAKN
cysteines in MDA-MB-231 and Ramos cells (Homo sapiens, UniProt Q9BRF8), sequence (Q9BRF8 whole entry): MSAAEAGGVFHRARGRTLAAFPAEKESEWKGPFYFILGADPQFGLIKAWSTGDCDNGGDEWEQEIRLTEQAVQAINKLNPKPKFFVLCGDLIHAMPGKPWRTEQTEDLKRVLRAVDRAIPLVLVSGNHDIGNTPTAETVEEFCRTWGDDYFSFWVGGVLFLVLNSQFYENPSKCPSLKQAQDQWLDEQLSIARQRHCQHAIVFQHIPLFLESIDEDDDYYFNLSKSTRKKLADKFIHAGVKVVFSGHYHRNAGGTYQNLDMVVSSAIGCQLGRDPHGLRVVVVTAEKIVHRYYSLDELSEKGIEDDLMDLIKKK
cysteines in MDA-MB-231 and Ramos cells (Homo sapiens, UniProt P51610), sequence (P51610 whole entry): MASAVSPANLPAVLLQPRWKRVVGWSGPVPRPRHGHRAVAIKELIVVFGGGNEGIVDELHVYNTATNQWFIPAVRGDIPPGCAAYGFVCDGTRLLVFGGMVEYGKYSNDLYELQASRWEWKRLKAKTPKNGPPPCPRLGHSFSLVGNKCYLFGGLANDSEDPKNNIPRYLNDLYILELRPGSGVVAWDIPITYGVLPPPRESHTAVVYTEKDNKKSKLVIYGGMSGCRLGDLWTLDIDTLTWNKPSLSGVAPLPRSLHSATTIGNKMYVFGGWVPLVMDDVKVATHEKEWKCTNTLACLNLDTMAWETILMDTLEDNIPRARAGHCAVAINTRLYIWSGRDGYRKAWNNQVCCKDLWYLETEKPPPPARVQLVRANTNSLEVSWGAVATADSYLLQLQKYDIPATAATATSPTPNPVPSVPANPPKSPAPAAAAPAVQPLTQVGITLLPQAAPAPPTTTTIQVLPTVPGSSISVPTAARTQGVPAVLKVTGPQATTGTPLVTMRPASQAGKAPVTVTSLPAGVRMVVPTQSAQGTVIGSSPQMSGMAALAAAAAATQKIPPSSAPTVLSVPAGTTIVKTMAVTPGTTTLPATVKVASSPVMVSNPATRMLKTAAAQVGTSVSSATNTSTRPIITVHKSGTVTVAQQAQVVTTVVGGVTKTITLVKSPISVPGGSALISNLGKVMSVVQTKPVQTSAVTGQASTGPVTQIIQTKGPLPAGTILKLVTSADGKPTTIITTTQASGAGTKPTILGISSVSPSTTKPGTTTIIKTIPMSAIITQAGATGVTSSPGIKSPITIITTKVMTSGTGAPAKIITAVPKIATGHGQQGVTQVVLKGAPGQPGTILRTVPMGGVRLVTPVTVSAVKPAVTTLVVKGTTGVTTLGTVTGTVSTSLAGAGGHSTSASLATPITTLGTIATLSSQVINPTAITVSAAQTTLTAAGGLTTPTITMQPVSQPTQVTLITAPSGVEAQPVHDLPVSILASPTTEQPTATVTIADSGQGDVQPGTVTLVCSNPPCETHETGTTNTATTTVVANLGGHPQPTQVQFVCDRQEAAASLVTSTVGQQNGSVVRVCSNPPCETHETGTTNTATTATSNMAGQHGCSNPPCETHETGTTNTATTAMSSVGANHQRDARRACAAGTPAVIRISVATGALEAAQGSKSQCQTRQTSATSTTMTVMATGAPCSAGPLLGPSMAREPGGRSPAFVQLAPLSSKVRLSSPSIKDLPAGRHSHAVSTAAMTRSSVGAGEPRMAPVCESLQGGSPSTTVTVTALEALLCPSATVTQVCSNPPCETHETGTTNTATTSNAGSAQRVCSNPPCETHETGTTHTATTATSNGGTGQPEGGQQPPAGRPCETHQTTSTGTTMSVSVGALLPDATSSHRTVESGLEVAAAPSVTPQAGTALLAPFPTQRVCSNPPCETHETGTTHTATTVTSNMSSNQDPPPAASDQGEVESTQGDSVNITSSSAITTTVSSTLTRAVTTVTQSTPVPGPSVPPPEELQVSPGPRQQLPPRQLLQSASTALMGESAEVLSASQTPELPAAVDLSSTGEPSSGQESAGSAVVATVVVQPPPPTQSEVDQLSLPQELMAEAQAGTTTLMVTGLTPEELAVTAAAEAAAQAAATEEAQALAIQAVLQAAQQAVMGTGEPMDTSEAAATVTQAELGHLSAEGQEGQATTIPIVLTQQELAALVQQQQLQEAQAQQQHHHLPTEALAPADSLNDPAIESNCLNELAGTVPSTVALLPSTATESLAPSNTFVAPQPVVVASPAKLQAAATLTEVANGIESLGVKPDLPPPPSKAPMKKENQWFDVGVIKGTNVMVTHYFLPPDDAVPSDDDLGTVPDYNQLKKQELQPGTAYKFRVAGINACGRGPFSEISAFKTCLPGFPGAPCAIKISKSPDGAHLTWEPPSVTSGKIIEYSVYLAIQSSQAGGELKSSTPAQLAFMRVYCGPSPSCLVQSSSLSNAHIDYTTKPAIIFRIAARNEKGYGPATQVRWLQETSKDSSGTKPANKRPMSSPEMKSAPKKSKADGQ
cysteines in MDA-MB-231 and Ramos cells (Homo sapiens, UniProt O15446), sequence (O15446 whole entry): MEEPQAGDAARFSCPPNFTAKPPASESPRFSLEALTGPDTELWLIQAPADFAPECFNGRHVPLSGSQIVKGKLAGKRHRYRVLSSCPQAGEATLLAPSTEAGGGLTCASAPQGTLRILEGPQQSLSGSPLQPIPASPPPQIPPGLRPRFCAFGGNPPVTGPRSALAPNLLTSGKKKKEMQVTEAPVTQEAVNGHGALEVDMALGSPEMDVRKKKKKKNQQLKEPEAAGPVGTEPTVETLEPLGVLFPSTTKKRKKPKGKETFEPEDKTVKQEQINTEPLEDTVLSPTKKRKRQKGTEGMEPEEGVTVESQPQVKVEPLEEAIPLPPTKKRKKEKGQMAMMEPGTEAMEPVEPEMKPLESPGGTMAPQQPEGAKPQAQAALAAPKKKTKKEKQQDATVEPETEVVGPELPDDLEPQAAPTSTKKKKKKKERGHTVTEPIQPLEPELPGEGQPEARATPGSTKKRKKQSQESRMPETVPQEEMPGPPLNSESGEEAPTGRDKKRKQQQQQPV

Compound: COc1ccc2c(c1)CCCN2C(=O)CCl [compound 2]
isoTOP-ABPP reactivity O15446_C86 CD3EAP [1]: 3.9
isoTOP-ABPP reactivity Q6ICB0_C108 DESII ([2]; 200 μM, insitu, 231): 20.0
isoTOP-ABPP reactivity P51610_C1872 HCFC1 ([3]; 200 μM, insitu, 231): 4.1

Compound: O=C(CCl)NC(=O)NC12CC3CC(CC(C3)C1)C2 [compound 12]
isoTOP-ABPP ratio, cysteine O15446_C86 [1]: 3.3
isoTOP-ABPP ratio, cysteine Q8WVV9_C464 ([7]; 200 μM, insitu, 231): 20.0
isoTOP-ABPP ratio, cysteine Q96RP9_C153 [6]; 231: 20.0
isoTOP-ABPP ratio Q9BRF8_C54 ([8]; 200 μM, insitu, 231): 1.2

Compound: O=C(CCl)N1CCN(S(=O)(=O)c2ccccc2F)CC1 [compound 10]
isoTOP-ABPP ratio, cysteine Q9NPH0_C267 ([4]; 200 μM, insitu, 231): 13.4
isoTOP-ABPP ratio, cysteine O15446_C86 [1]: 4.7
isoTOP-ABPP ratio, cysteine Q96RP9_C153 [6]; 231: 14.8
isoTOP-ABPP ratio, cysteine O14933_C98 [9]; 231: 20.0
isoTOP-ABPP ratio, cysteine O14933_C98 ([9]; ramos): 3.2
isoTOP-ABPP ratio Q9BRF8_C54 ([8]; 200 μM, insitu, 231): 3.8
isoTOP-ABPP ratio, cysteine P51610_C1872 ([3]; 200 μM, insitu, 231): 1.5

Compound: Cn1cc(S(=O)(=O)N2CCOCC2)cc1C(=O)NC(=O)CCl [compound 11]
isoTOP-ABPP ratio, cysteine Q9Y679_C391 ([5]; 100 μM in situ 231): 3.0
isoTOP-ABPP ratio, cysteine Q8WVV9_C464 ([7]; 100 μM in situ 231): 0.9
isoTOP-ABPP ratio Q9BRF8_C54 ([8]; 100 μM in situ 231): 1.0
isoTOP-ABPP ratio Q6ICB0_C108 ([2]; 100 μM in situ 231): 0.7
isoTOP-ABPP ratio, cysteine P51610_C1872 ([3]; 100 μM in situ 231): 0.5

Compound: COc1cc2c(cc1OC)CN(C(=O)CCl)CC2 [compound 8]
isoTOP-ABPP reactivity Q9NPH0_C267 ACP6 ([4]; 200 μM, insitu, 231): 20.0
isoTOP-ABPP reactivity Q9Y679_C391 AUP1 ([5]; 200 μM, insitu, 231): 20.0
isoTOP-ABPP reactivity Q6ICB0_C108 DESII ([2]; 200 μM, insitu, 231): 20.0

Compound: O=C(CCl)NCCc1c[nH]c2ccccc12 [compound 13]
isoTOP-ABPP ratio, cysteine O15446_C86 [1]: 1.3
isoTOP-ABPP ratio, cysteine Q96RP9_C153 ([6]; ramos): 0.8
isoTOP-ABPP ratio Q9BRF8_C54 ([8]; 200 μM, insitu, 231): 1.4
isoTOP-ABPP ratio Q6ICB0_C108 ([2]; 200 μM, insitu, ramos): 4.0
isoTOP-ABPP ratio, cysteine P51610_C1872 ([3]; 200 μM, insitu, 231): 1.0

Compound: O=C(CCl)N1CCC(Cc2ccccc2)CC1 [compound 9]
isoTOP-ABPP reactivity Q9BRF8_C54 CPPED1 ([8]; 200 μM, insitu, 231): 2.4

Compound: COc1ccc(C2CC(c3cccs3)=NN2C(=O)CCl)cc1 (stereo not drawn) [compound 4]
isoTOP-ABPP reactivity Q9NPH0_C267 ACP6 ([4]; 100 μM in situ 231): 20.0
isoTOP-ABPP reactivity Q9Y679_C391 AUP1 ([5]; 100 μM in situ 231): 20.0
isoTOP-ABPP reactivity Q96RP9_C153 GFM1 ([6]; 100 μM in situ 231): 1.0
isoTOP-ABPP reactivity O14933_C98 UBE2L6 ([9]; 100 μM in situ 231): 3.0
isoTOP-ABPP reactivity Q9BRF8_C54 CPPED1 ([8]; 100 μM in situ 231): 20.0

Further lines, results first:

isoTOP-ABPP ratio Q9NPH0_C267 ([4]; 200 μM, insitu, 231): 1.3
isoTOP-ABPP ratio Q9Y679_C391 ([5]; 200 μM, insitu, 231): 1.2
isoTOP-ABPP ratio Q96RP9_C153 [6]; 231: 1.6
isoTOP-ABPP ratio Q6ICB0_C108 ([2]; 200 μM, insitu, 231): 1.9
Compound: CC(C)CCOCCNC(=O)CCl [compound 27]

isoTOP-ABPP ratio, cysteine Q9Y679_C391 ([5]; 200 μM, insitu, 231): 1.5
isoTOP-ABPP ratio, cysteine O15446_C86 [1]: 1.7
isoTOP-ABPP ratio, cysteine Q8WVV9_C464 ([7]; 200 μM, insitu, 231): 1.4
isoTOP-ABPP ratio, cysteine Q96RP9_C153 [6]; 231: 1.4
isoTOP-ABPP ratio, cysteine O14933_C98 [9]; 231: 0.7
isoTOP-ABPP ratio Q6ICB0_C108 ([2]; 200 μM, insitu, 231): 0.6
Compound: O=C(CCl)NC12CC3CC(CC(C3)C1)C2 [compound 21]

isoTOP-ABPP ratio Q96RP9_C153 [6]; 231: 1.1
isoTOP-ABPP ratio O14933_C98 [9]; 231: 0.5
isoTOP-ABPP ratio Q9BRF8_C54 ([8]; 200 μM, insitu, 231): 0.7
isoTOP-ABPP ratio P51610_C1872 ([3]; 200 μM, insitu, 231): 0.5
Compound: Cc1ccc(C=C(C#N)C(=O)NCCN2CCOCC2)cc1 [compound 41]

isoTOP-ABPP ratio Q9NPH0_C267 ([4]; 200 μM, insitu, 231): 20.0
isoTOP-ABPP ratio Q9Y679_C391 ([5]; 200 μM, insitu, 231): 20.0
isoTOP-ABPP ratio O15446_C86 [1]: 4.6
isoTOP-ABPP ratio Q8WVV9_C464 ([7]; 200 μM, insitu, 231): 20.0
isoTOP-ABPP ratio O14933_C98 [9]; 231: 20.0
isoTOP-ABPP ratio Q9BRF8_C54 ([8]; 200 μM, insitu, 231): 20.0
isoTOP-ABPP ratio Q6ICB0_C108 ([2]; 200 μM, insitu, 231): 3.1
Compound: CC1CCc2ccccc2N1C(=O)CCl (stereo not drawn) [compound 45]

isoTOP-ABPP ratio Q9Y679_C391 ([5]; 200 μM, insitu, 231): 20.0
isoTOP-ABPP ratio Q8WVV9_C464 ([7]; 200 μM, insitu, 231): 3.2
isoTOP-ABPP ratio Q6ICB0_C108 ([2]; 200 μM, insitu, 231): 1.1
Compound: O=C(CCl)Nc1cccc2ncccc12 [compound 51]

isoTOP-ABPP ratio Q8WVV9_C464 ([7]; 200 μM, insitu, 231): 1.5
isoTOP-ABPP ratio O14933_C98 [9]; 231: 1.6
isoTOP-ABPP ratio Q6ICB0_C108 ([2]; 200 μM, insitu, 231): 1.1
isoTOP-ABPP ratio P51610_C1872 ([3]; 200 μM, insitu, 231): 1.3
Compound: C=CC(=O)Nc1cc(F)c(N2CCN(C(=O)OC(C)(C)C)CC2)c(F)c1 [compound 38]

isoTOP-ABPP ratio O14933_C98 ([9]; ramos): 1.9
isoTOP-ABPP ratio Q6ICB0_C108 ([2]; 200 μM, insitu, 231): 1.2
isoTOP-ABPP ratio Q6ICB0_C108 ([2]; 200 μM, insitu, ramos): 1.3
Compound: C=CC(=O)N(Cc1cccnc1)c1cc(C(F)(F)F)cc(C(F)(F)F)c1 [compound 31]

isoTOP-ABPP ratio Q9NPH0_C267 ([4]; 200 μM, insitu, ramos): 2.1
isoTOP-ABPP ratio Q96RP9_C153 ([6]; ramos): 1.2
isoTOP-ABPP ratio O14933_C98 ([9]; ramos): 2.4
isoTOP-ABPP ratio Q9BRF8_C54 ([8]; 200 μM, insitu, ramos): 1.5
isoTOP-ABPP ratio Q6ICB0_C108 ([2]; 200 μM, insitu, ramos): 1.0
Compound: O=C(CCl)N1CCN(CC(=O)N2CCOCC2)CC1 [compound 29]
